Where “and” joins values, the source holds several entries; their conditions need not be identical. Identical values can stand only once. Blank lines part the entries; values can stand above or below the molecule they belong to.
Tested on: K98450-129-R-PDC multicell spheroids, viability
Experiment: Anticancer human tumor K98450-129-R-PDC patient-derived colon adenocarcinoma cell line growth inhibition [PI3K]
Settings: for viability, T/C: stronger effect = lower value
Method in brief: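 High-throughput combination screen: PI3K inhibitors crossed with targeted small molecules on complex spheroids of tumor cells, HUVEC and MSCs at 37 degrees C, 5% CO2. Top concentration was at or near clinical Cmax (otherwise 10 microM), with half-log decrements.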

[1] = curve of first compound, second compound 0.00316 µM
[2] = curve of first compound, second compound 0.01 µM
[3] = curve of first compound, second compound 0.0316 µM
[4] = curve of first compound, second compound 0.1 µM
[5] = curve of first compound, second compound 0.316 µM
[6] = curve of first compound, second compound 1 µM
[7] = second compound 0.00316 µM, first compound 0.0316 µM
[8] = second compound 0.00316 µM, first compound 0.1 µM
[9] = second compound 0.00316 µM, first compound 0.316 µM
[10] = second compound 0.00316 µM, first compound 1 µM
[11] = second compound 0.01 µM, first compound 0.0316 µM
[12] = second compound 0.01 µM, first compound 0.1 µM
[13] = second compound 0.01 µM, first compound 0.316 µM
[14] = second compound 0.01 µM, first compound 1 µM
[15] = second compound 0.0316 µM, first compound 0.00316 µM
[16] = second compound 0.0316 µM, first compound 0.01 µM
[17] = second compound 0.0316 µM, first compound 0.0316 µM
[18] = second compound 0.0316 µM, first compound 0.1 µM
[19] = second compound 0.0316 µM, first compound 0.316 µM
[20] = second compound 0.0316 µM, first compound 1 µM
[21] = second compound 0.1 µM, first compound 0.00316 µM
[22] = second compound 0.1 µM, first compound 0.01 µM
[23] = second compound 0.1 µM, first compound 0.0316 µM
[24] = second compound 0.1 µM, first compound 0.1 µM
[25] = second compound 0.1 µM, first compound 0.316 µM
[26] = second compound 0.1 µM, first compound 1 µM
[27] = second compound 0.316 µM, first compound 0.00316 µM
[28] = second compound 0.316 µM, first compound 0.01 µM
[29] = second compound 0.316 µM, first compound 0.0316 µM
[30] = second compound 0.316 µM, first compound 0.1 µM
[31] = second compound 0.316 µM, first compound 0.316 µM
[32] = second compound 0.316 µM, first compound 1 µM
[33] = second compound 1 µM, first compound 0.00316 µM
[34] = second compound 1 µM, first compound 0.01 µM
[35] = second compound 1 µM, first compound 0.0316 µM
[36] = second compound 1 µM, first compound 0.1 µM
[37] = second compound 1 µM, first compound 0.316 µM
[38] = second compound 1 µM, first compound 1 µM
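Also: spheroids exposed to agents for seven days before read-out.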

SMILES: CC1(C)CCC(Nc2ncc(C(F)(F)F)c(-c3c[nH]c4c(P(C)(C)=O)c(C#N)ccc34)n2)CN1 (stereo unspecified) + CC(Nc1ccc2c(c1)OCCn1cc(N3C(=O)OCC3C(F)F)nc1-2)C(N)=O
IC50 [1]: > 10 µM
IC50 [2]: > 10 µM
IC50 [3]: > 10 µM
IC50 [4]: > 10 µM
IC50 [5]: > 10 µM
IC50 [6]: > 10 µM
viability, T/C [7]: 108%
viability, T/C [8]: 103%
viability, T/C [9]: 95.8%
viability, T/C [10]: 67.7%
viability, T/C (second compound 0.00316 µM, first compound 3.16 µM): 64.1%
viability, T/C (second compound 0.00316 µM, first compound 10 µM): 63.8%
viability, T/C [11]: 116%
viability, T/C [12]: 98.2%
viability, T/C [13]: 92.7%
viability, T/C [14]: 68.9%
viability, T/C (second compound 0.01 µM, first compound 3.16 µM): 67.2%
viability, T/C (second compound 0.01 µM, first compound 10 µM): 62.2%
viability, T/C [17]: 116%
viability, T/C [18]: 109%
viability, T/C [19]: 81.5%
viability, T/C [20]: 66.8%
viability, T/C (second compound 0.0316 µM, first compound 3.16 µM): 69.3%
viability, T/C (second compound 0.0316 µM, first compound 10 µM): 65.5%
viability, T/C [23]: 105%
viability, T/C [24]: 107%
viability, T/C [25]: 82.6%
viability, T/C [26]: 66.9%
viability, T/C (second compound 0.1 µM, first compound 3.16 µM): 67.8%
viability, T/C (second compound 0.1 µM, first compound 10 µM): 61.2%
viability, T/C [29]: 100%
viability, T/C [30]: 101%
viability, T/C [31]: 85.4%
viability, T/C [32]: 69.3%
viability, T/C (second compound 0.316 µM, first compound 3.16 µM): 66.7%
viability, T/C (second compound 0.316 µM, first compound 10 µM): 60.7%
viability, T/C [35]: 91.9%
viability, T/C [36]: 90.1%
viability, T/C [37]: 79.1%
viability, T/C [38]: 67.5%
viability, T/C (second compound 1 µM, first compound 3.16 µM): 69.6%
viability, T/C (second compound 1 µM, first compound 10 µM): 60.6%

SMILES: Cn1ncc(Cl)c1-c1cc(C(=O)NC(CN)Cc2cccc(F)c2)sc1Cl (stereo unspecified)
viability, T/C (compound 0.0316 µM): 108% [middle of 4 runs]
viability, T/C (compound 0.1 µM): 98.9% and 101% (2×) and 95.5%
viability, T/C (compound 0.316 µM): 107% [middle of 4 runs]
viability, T/C (compound 1 µM): 98.2% [middle of 4 runs]
viability, T/C (compound 3.16 µM): 92.7% [middle of 4 runs]
IC50 (curve of compound): > 10 µM

SMILES: Cn1ncnc1[C@H]1c2n[nH]c(=O)c3cc(F)cc(c23)N[C@@H]1c1ccc(F)cc1 + CC(Nc1ncnc2nc[nH]c12)c1cc2cccc(Cl)c2c(=O)n1-c1ccccc1
IC50 [3]: > 0.1 µM
IC50 [4]: > 0.1 µM
IC50 [5]: > 0.1 µM
IC50 [6]: > 0.1 µM
IC50 (curve of first compound, second compound 3.16 µM): > 0.1 µM
IC50 (curve of first compound, second compound 10 µM): > 0.1 µM
viability, T/C (second compound 0.0316 µM, first compound 0.000316 µM): 108%
viability, T/C (second compound 0.0316 µM, first compound 0.001 µM): 118%
viability, T/C [15]: 111%
viability, T/C [16]: 111%
viability, T/C [17]: 97.9%
viability, T/C [18]: 87.2%
viability, T/C (second compound 0.1 µM, first compound 0.000316 µM): 110%
viability, T/C (second compound 0.1 µM, first compound 0.001 µM): 106%
viability, T/C [21]: 97.5%
viability, T/C [22]: 107%
viability, T/C [23]: 104%
viability, T/C [24]: 114%
viability, T/C (second compound 0.316 µM, first compound 0.000316 µM): 109%
viability, T/C (second compound 0.316 µM, first compound 0.001 µM): 97.5%
viability, T/C [27]: 112%
viability, T/C [28]: 98.3%
viability, T/C [29]: 108%
viability, T/C [30]: 85.5%
viability, T/C (second compound 1 µM, first compound 0.000316 µM): 100%
viability, T/C (second compound 1 µM, first compound 0.001 µM): 97.5%
viability, T/C [33]: 93.8%
viability, T/C [34]: 83.6%
viability, T/C [35]: 94.5%
viability, T/C [36]: 95.8%
viability, T/C (second compound 3.16 µM, first compound 0.000316 µM): 103%
viability, T/C (second compound 3.16 µM, first compound 0.001 µM): 100%
viability, T/C (second compound 3.16 µM, first compound 0.00316 µM): 99.3%
viability, T/C (second compound 3.16 µM, first compound 0.01 µM): 104%
viability, T/C (second compound 3.16 µM, first compound 0.0316 µM): 102%
viability, T/C (second compound 3.16 µM, first compound 0.1 µM): 88%
viability, T/C (second compound 10 µM, first compound 0.000316 µM): 86.5%
viability, T/C (second compound 10 µM, first compound 0.001 µM): 120%
viability, T/C (second compound 10 µM, first compound 0.00316 µM): 88.2%
viability, T/C (second compound 10 µM, first compound 0.01 µM): 87.8%
viability, T/C (second compound 10 µM, first compound 0.0316 µM): 98.3%
viability, T/C (second compound 10 µM, first compound 0.1 µM): 91.8%

The next lines start with results.

IC50 [1]: > 1 µM
IC50 [2]: > 1 µM
IC50 [3]: > 1 µM
IC50 [4]: > 1 µM
IC50 [5]: > 1 µM
IC50 [6]: > 1 µM
SMILES: CCN1CCN(Cc2ccc(Nc3ncc(F)c(-c4cc(F)c5nc(C)n(C(C)C)c5c4)n3)nc2)CC1 + CC(Nc1ccc2c(c1)OCCn1cc(N3C(=O)OCC3C(F)F)nc1-2)C(N)=O
viability, T/C (second compound 0.00316 µM, first compound 0.00316 µM): 105%
viability, T/C (second compound 0.00316 µM, first compound 0.01 µM): 92.2%
viability, T/C [7]: 104%
viability, T/C [8]: 90.3%
viability, T/C [9]: 81%
viability, T/C [10]: 82.9%
viability, T/C (second compound 0.01 µM, first compound 0.00316 µM): 117%
viability, T/C (second compound 0.01 µM, first compound 0.01 µM): 90.5%
viability, T/C [11]: 98.7%
viability, T/C [12]: 92.3%
viability, T/C [13]: 84.9%
viability, T/C [14]: 86.9%
viability, T/C [15]: 109%
viability, T/C [16]: 100%
viability, T/C [17]: 93.8%
viability, T/C [18]: 89.9%
viability, T/C [19]: 94.5%
viability, T/C [20]: 92.6%
viability, T/C [21]: 92.9%
viability, T/C [22]: 96.8%
viability, T/C [23]: 97.4%
viability, T/C [24]: 85.5%
viability, T/C [25]: 83.7%
viability, T/C [26]: 82.8%
viability, T/C [27]: 90.6%
viability, T/C [28]: 98.3%
viability, T/C [29]: 95.7%
viability, T/C [30]: 86.5%
viability, T/C [31]: 85.4%
viability, T/C [32]: 79.3%
viability, T/C [33]: 90.5%
viability, T/C [34]: 88%
viability, T/C [35]: 86.8%
viability, T/C [36]: 82.3%
viability, T/C [37]: 83.9%
viability, T/C [38]: 81.6%

IC50 (curve of compound): 8.62 µM and > 10 µM and 9.21 µM
SMILES: CC1(C)CCC(Nc2ncc(C(F)(F)F)c(-c3c[nH]c4c(P(C)(C)=O)c(C#N)ccc34)n2)CN1 (stereo unspecified)
viability, T/C (compound 0.0316 µM): 107% and 114% (2×) and 124%
viability, T/C (compound 0.1 µM): 99% [middle of 4 runs]
viability, T/C (compound 0.316 µM): 88.8% [middle of 4 runs]
viability, T/C (compound 1 µM): 70.6% [middle of 4 runs]
viability, T/C (compound 3.16 µM): 66.8% [middle of 4 runs]
viability, T/C (compound 10 µM): 63.4% [middle of 4 runs]

IC50 (compound alone, run of 04/24/2023): > 10 µM
SMILES: Cc1nc(NC(=O)N2CCCC2C(N)=O)sc1-c1ccnc(C(C)(C)C(F)(F)F)c1 (stereo unspecified)
viability, T/C (compound 0.0316 µM): 104% [middle of 8 runs]
viability, T/C (compound 0.1 µM): 103% [middle of 8 runs]
viability, T/C (compound 0.316 µM): 102% [middle of 8 runs]
viability, T/C (compound 1 µM): 99.1% [middle of 8 runs]
viability, T/C (compound 3.16 µM): 93.5% [middle of 8 runs]
viability, T/C (compound 10 µM): 75.9% [middle of 8 runs]

— PubChem BioAssay AID1963961 (Molecular Pharmacology Branch, DTP, NCI, 2024)
